Test results reported in the supplement of paper PMC10307832.

Columns and labels:
Assay in all cases: relative viability (nuclei count vs DMSO), 5 days (fraction); higher = more cells survive
[1] = compound: COc1cc2ncn(-c3cc(OCc4ccccc4C(F)(F)F)c(C(N)=O)s3)c2cc1OC + C[C@@H](Oc1cc(-c2cnn(C3CCNCC3)c2)cnc1N)c1c(Cl)ccc(F)c1Cl [Crizotinib] (partner 1 µM)
In short: (§1)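 Relative viability divides the nuclei count in treated wells by that in vehicle wells. Lung cancer cell lines were seeded in 1536-well plates, dosed by pin tool the next day, and fixed and stained after 5 days in one step with final 0.05% Triton X-100, 1% formaldehyde and 1 ug/ml Hoechst. Dosing was a single drug or a fixed anchor-drug dose plus five library-drug doses (not always all listed) in √10 steps, and values are medians of duplicate plates imaged at 4×.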

[2] = compound: COc1cc2ncn(-c3cc(OCc4ccccc4C(F)(F)F)c(C(N)=O)s3)c2cc1OC + O=C(CCCCCCC(=O)Nc1ccccc1)NO [Vorinostat] (partner 1 µM)
In short: as §1

[3] = compound: COc1cc2ncn(-c3cc(OCc4ccccc4C(F)(F)F)c(C(N)=O)s3)c2cc1OC + CS(=O)(=O)N1CCN(Cc2cc3nc(-c4cccc5[nH]ncc45)nc(N4CCOCC4)c3s2)CC1 [Pictilisib] (partner 1 µM)
In short: as §1

[4] = compound: COc1cc2ncn(-c3cc(OCc4ccccc4C(F)(F)F)c(C(N)=O)s3)c2cc1OC + Cc1nc(Nc2ncc(C(=O)Nc3c(C)cccc3Cl)s2)cc(N2CCN(CCO)CC2)n1 [Dasatinib] (partner 0.075 µM)
In short: as §1

Cell Line | relative viability ([1]; first compound 0.05 µM) | relative viability ([1]; first compound 0.1581 µM) | relative viability ([1]; first compound 0.5 µM) | relative viability ([1]; first compound 1.581 µM) | relative viability ([1]; first compound 5 µM) | relative viability ([2]; first compound 0.05 µM) | relative viability ([2]; first compound 0.1581 µM) | relative viability ([2]; first compound 0.5 µM) | relative viability ([2]; first compound 1.581 µM) | relative viability ([2]; first compound 5 µM) | relative viability ([3]; first compound 0.05 µM) | relative viability ([3]; first compound 0.1581 µM) | relative viability ([3]; first compound 0.5 µM) | relative viability ([3]; first compound 1.581 µM) | relative viability ([3]; first compound 5 µM) | relative viability ([4]; first compound 0.05 µM) | relative viability ([4]; first compound 0.1581 µM) | relative viability ([4]; first compound 0.5 µM) | relative viability ([4]; first compound 1.581 µM) | relative viability ([4]; first compound 5 µM)
NCI-H1651 | 0.9 | 0.84 | 0.775 | 0.631 | 0.332 | 0.504 | 0.51 | 0.309 | 0.164 | 0.324 | 0.662 | 0.7 | 0.616 | 0.111 | 0.102 | 0.403 | 0.39 | 0.198 | 0.0914 | 0.0837
NCI-H1666 | 0.917 | 0.913 | 0.606 | 0.289 | 0.326 | 0.954 | 0.998 | 0.584 | 0.561 | 0.527 | 0.404 | 0.38 | 0.332 | 0.188 | 0.193 | 0.825 | 0.758 | 0.518 | 0.316 | 0.271
NCI-H1734 | 0.656 | 0.616 | 0.36 | 0.239 | 0.14 | 0.776 | 0.902 | 0.365 | 0.202 | 0.137 | 0.493 | 0.48 | 0.409 | 0.206 | 0.172 | 0.477 | 0.516 | 0.387 | 0.197 | 0.129
NCI-H1755 | 0.829 | 0.828 | 0.644 | 0.389 | 0.334 | 0.781 | 0.738 | 0.631 | 0.447 | 0.354 | 0.457 | 0.371 | 0.355 | 0.203 | 0.169 | 0.445 | 0.402 | 0.315 | 0.222 | 0.207
NCI-H1915 | 0.916 | 0.898 | 0.639 | 0.123 | 0.102 | 0.497 | 0.582 | 0.352 | 0.0829 | 0.0666 | 0.988 | 0.857 | 0.799 | 0.111 | 0.0806 | 0.365 | 0.281 | 0.316 | 0.0798 | 0.0572
NCI-H1944 | 1.32 | 1.18 | 1.1 | 0.351 | 0.113 | 0.609 | 0.602 | 0.456 | 0.166 | 0.127 | 0.368 | 0.363 | 0.307 | 0.206 | 0.166 | 0.227 | 0.223 | 0.191 | 0.127 | 0.109
NCI-H1975 | 1.04 | 0.913 | 0.462 | 0.212 | 0.2 | 0.501 | 0.631 | 0.272 | 0.166 | 0.134 | 0.285 | 0.324 | 0.257 | 0.133 | 0.157 | 0.415 | 0.335 | 0.207 | 0.126 | 0.109
NCI-H1993 | 0.898 | 0.877 | 0.693 | 0.58 | 0.614 | 0.725 | 0.736 | 0.384 | 0.389 | 0.348 | – | 0.812 | 0.73 | 0.553 | 0.588 | 0.649 | 0.555 | 0.528 | 0.503 | 0.424
NCI-H2009 | 1.01 | 0.825 | 0.445 | 0.208 | 0.253 | 0.667 | 0.607 | 0.302 | 0.0531 | 0.0578 | 0.783 | 0.417 | 0.325 | 0.166 | 0.152 | 0.297 | 0.256 | 0.152 | 0.128 | 0.0782
NCI-H2023 | 0.605 | 0.67 | 0.424 | 0.138 | 0.0906 | 0.544 | 0.711 | 0.168 | 0.107 | 0.0613 | 0.228 | 0.287 | 0.196 | 0.12 | 0.0888 | 0.566 | 0.532 | 0.355 | 0.096 | 0.0804
NCI-H2085 | 0.842 | 0.848 | 0.629 | 0.517 | 0.309 | 0.722 | 0.796 | 0.541 | 0.386 | 0.302 | 0.47 | 0.45 | 0.463 | 0.273 | 0.273 | 0.23 | 0.233 | 0.221 | 0.217 | 0.209
NCI-H2087 | 0.934 | 0.793 | 0.32 | 0.18 | 0.139 | 0.639 | 0.573 | 0.163 | 0.0594 | 0.121 | 1.11 | 0.556 | 0.454 | 0.211 | 0.134 | 0.8 | 0.656 | 0.583 | 0.117 | 0.075
NCI-H2126 | 1.05 | 1 | 0.849 | 0.419 | 0.264 | 0.847 | 0.759 | 0.401 | 0.236 | 0.216 | 0.462 | 0.517 | 0.477 | 0.254 | 0.229 | 0.584 | 0.638 | 0.463 | 0.248 | 0.221
NCI-H2170 | 1.25 | 1.15 | 0.599 | 0.268 | 0.258 | 0.834 | 0.725 | 0.386 | 0.128 | 0.125 | 0.342 | 0.318 | 0.188 | 0.192 | 0.156 | 0.545 | 0.406 | 0.374 | 0.163 | 0.156
NCI-H2228 | 0.542 | 0.554 | 0.31 | 0.207 | 0.308 | 0.283 | 0.575 | 0.196 | 0.111 | 0.104 | 0.331 | 0.423 | 0.237 | 0.165 | 0.303 | 0.381 | 0.472 | 0.176 | 0.132 | 0.181
NCI-H2347 | 0.58 | 0.736 | 0.603 | 0.537 | 0.385 | 0.551 | 0.658 | 0.407 | 0.445 | 0.302 | 0.689 | 0.435 | 0.503 | 0.394 | 0.375 | 0.32 | 0.258 | 0.278 | 0.228 | 0.258
NCI-H2405 | 0.84 | 0.682 | 0.595 | 0.357 | 0.463 | 1.21 | 0.676 | 0.38 | 0.386 | 0.254 | 0.512 | 0.265 | 0.458 | 0.366 | 0.27 | 0.24 | 0.21 | 0.171 | 0.162 | 0.131
NCI-H3122 | 0.245 | 0.288 | 0.23 | 0.186 | 0.173 | 1 | 0.596 | 0.357 | 0.13 | 0.13 | 0.578 | 0.269 | 0.282 | 0.212 | 0.184 | 0.895 | 0.562 | 0.373 | 0.125 | 0.0999
PC-3 [JPC-3] | 0.987 | 1.01 | 0.778 | 0.34 | 0.27 | 0.907 | 0.82 | 0.515 | 0.464 | 0.31 | 0.728 | 0.78 | 0.611 | 0.327 | 0.26 | 0.943 | 0.98 | 0.767 | 0.174 | 0.168
PC-14 | 0.83 | 0.828 | 0.564 | – | 0.411 | 0.662 | 0.655 | 0.141 | 0.0309 | 0.0197 | 0.717 | 0.694 | 0.343 | 0.0295 | 0.0382 | 0.201 | 0.235 | 0.106 | 0.0176 | 0.0233
RERF-LC-KJ | 0.813 | 0.887 | 0.766 | – | 0.545 | 0.696 | 0.626 | 0.33 | 0.287 | 0.345 | 0.557 | 0.692 | 0.269 | – | 0.185 | 0.846 | 0.748 | 0.336 | 0.21 | 0.182
SK-LU-1 | 0.935 | 0.832 | 0.411 | 0.296 | 0.313 | 0.615 | 0.529 | 0.301 | 0.304 | 0.257 | 0.568 | 0.516 | 0.423 | 0.213 | 0.178 | 0.183 | 0.198 | 0.138 | 0.146 | 0.158
SK-MES-1 | 0.971 | 0.861 | 0.627 | – | 0.476 | 1.06 | 1.01 | 0.212 | 0.174 | 0.147 | 0.343 | 0.414 | 0.292 | 0.132 | 0.213 | 0.338 | 0.367 | 0.184 | 0.129 | 0.116
SW 1573 | 0.786 | 0.859 | 0.514 | 0.134 | 0.293 | 0.834 | 0.691 | 0.219 | 0.142 | 0.0957 | 0.529 | 0.377 | 0.367 | – | 0.176 | 0.574 | 0.416 | 0.11 | 0.0632 | 0.0788
UMC-11 | 0.627 | 0.484 | 0.141 | 0.0823 | 0.102 | 0.283 | 0.22 | 0.136 | 0.131 | 0.104 | 0.727 | 0.81 | 0.226 | 0.149 | 0.121 | 0.533 | 0.399 | 0.168 | 0.18 | 0.133
